What was measured:
[1] = Modeled steady state exposures following lorcaserin 10 mg BID (simulations and noncompartmental analysis from QD data); settings: 10 mg BID Simulation, Steady State
Experimental: To better assess the potential implications of M1 and M5 levels in patients, steady state exposures (i.e. the state of equilibrium obtained at the end of a certain number of dosings) following lorcaserin 10 mg twice daily (BID) dosing were modeled using simulations and noncompartmental analysis based on data from pharmacokinetic studies with once daily (QD) dosing.
To better assess the potential implications of M1 levels in subjects with renal impairment, steady state M1 exposure following lorcaserin 10 mg BID administration was modeled using simulations and noncompartmental analysis based upon data from pharmacokinetic studies with once daily (QD) dosing. This modeling is discussed below in Example 5.
To better assess the potential implications of M1 and M5 levels, steady state exposures following lorcaserin 10 mg BID dosing were modeled using simulations and noncompartmental analysis based upon data from pharmacokinetic studies with once daily (QD) dosing.

[2] = Clinical trial APD356-016: plasma and urine pharmacokinetics of lorcaserin, M1 and M5 after a 10 mg dose in subjects with renal impairment; settings: for tmax: median; for Ae0-120 / fe0-120: urine
Experimental: The interaction of renal insufficiency with the pharmacokinetics, tolerability and safety of lorcaserin were evaluated in a formal PK study in subjects with renal impairment and in the populations studied in phase 2 and phase 3 clinical studies.
The pharmacokinetic properties of lorcaserin in subjects with varying degrees of renal impairment were evaluated in clinical trial APD356-016. At the time of study conduct and analysis, subjects were assigned to renal impairment groups based on creatinine clearance calculated using IDEAL body weight (Table 1). This calculation was used to avoid overestimation of creatinine clearance due to the excess body weight (overweight and obese subjects were enrolled in the trial). Summaries of pharmacokinetic properties by group assignment using creatinine clearance calculated using ACTUAL body weights are also provided in the sections that follow.
The FDA expects a reasonable margin between anticipated exposures and exposures that may produce toxicity. A reasonable margin can vary depending on the expected toxicity, but generally is an order of magnitude (10 times), but can sometimes be less for mild toxicity.
Table 13. Summary of Plasma Concentrations (ng/mL) of HSO3-APD356 Metabolite over Time by Group: Severe Renal Impairment Not Receiving Dialysis (see Table 13 next page)
Subject number 3140-505 was on dialysis and grouped in the end stage renal disease group.

[3] = 10 mg dose, Mild, actual BW groups
[4] = 10 mg dose, Mild, ideal BW groups
[5] = 10 mg dose, Moderate, actual BW groups
[6] = 10 mg dose, Moderate, ideal BW groups
[7] = 10 mg dose, Normal, actual BW groups
[8] = 10 mg dose, Normal, ideal BW groups
[9] = 10 mg dose, Severe N = 1, actual BW groups
[10] = 10 mg dose, Severe, ideal BW groups
[11] = ESRD, 10 mg QD Authentic, Day 1
[12] = Mild, 10 mg QD Authentic, Day 1
[13] = Moderate, 10 mg QD Authentic, Day 1
[14] = Normal, 10 mg QD Authentic, Day 1
[15] = Severe, 10 mg QD Authentic, Day 1

C[C@H]1CN(C(=O)O[C@@H]2O[C@H](C(=O)O)[C@@H](O)[C@H](O)[C@H]2O)CCc2ccc(Cl)cc21 [Compound M5, N-carbamoyl glucuronide of lorcaserin] gave an AUC24 hr ([1]; ESRD) of 20100 ng·h/mL, a Cmax ([1]; ESRD) of 936 ng/mL and a t1/2 ([1]; ESRD) of 22.9 h. The AUC24 hr ([1]; Mild) was 1090 ng·h/mL, the Cmax ([1]; Mild) was 78.1 ng/mL and the t1/2 ([1]; Mild) was 5.41 h. For the same molecule, the AUC24 hr ([1]; Moderate) was 2150 ng·h/mL, the Cmax ([1]; Moderate) was 141 ng/mL and the t1/2 ([1]; Moderate) was 9.83 h. For the same molecule, the AUC24 hr ([1]; Normal) was 765 ng·h/mL, the Cmax ([1]; Normal) was 77.3 ng/mL and the t1/2 ([1]; Normal) was 6.11 h. It also gave an AUC24 hr ([1]; Severe) of 4260 ng·h/mL, a Cmax ([1]; Severe) of 223 ng/mL and a t1/2 ([1]; Severe) of 11.0 h. The “% AUC Extrapolated” value ([2]; 10 mg dose, ESRD (Period 1)) was 14.7%, the AUC0-inf ([2]; 10 mg dose, ESRD (Period 1)) was 11200 ng·h/mL and the AUC(0-t) ([2]; 10 mg dose, ESRD (Period 1)) was 9530 ng·h/mL. It also gave an AUClast ([2]; 10 mg dose, ESRD (Period 1)) of 9530 ng·h/mL, a Cmax ([2]; 10 mg dose, ESRD (Period 1)) of 300 ng/mL and an MRTinf ([2]; 10 mg dose, ESRD (Period 1)) of 38.6 h. For the same molecule, the t1/2z ([2]; 10 mg dose, ESRD (Period 1)) was 25.7 h, the tmax ([2]; 10 mg dose, ESRD (Period 1)) was 3.00 h and the “% AUC Extrapolated” value ([2]; 10 mg dose, ESRD (Period 2)) was 26.9%. The AUC0-inf ([2]; 10 mg dose, ESRD (Period 2)) was 11900 ng·h/mL, the AUC(0-t) ([2]; 10 mg dose, ESRD (Period 2)) was 8240 ng·h/mL and the AUClast ([2]; 10 mg dose, ESRD (Period 2)) was 8240 ng·h/mL. It also gave a Cmax ([2]; 10 mg dose, ESRD (Period 2)) of 231 ng/mL, an MRTinf ([2]; 10 mg dose, ESRD (Period 2)) of 59.1 h and a t1/2z ([2]; 10 mg dose, ESRD (Period 2)) of 40.5 h. For the same molecule, the tmax ([2]; 10 mg dose, ESRD (Period 2)) was 3.10 h, the “% AUC0-inf Extrapolated” value [2, 3] was 14.5% and the AUC0-inf [2, 3] was 1040 ng·h/mL. It also gave an AUClast [2, 3] of 914 ng·h/mL, a Cmax [2, 3] of 91.9 ng/mL and an MRTinf [2, 3] of 16.6 h. For the same molecule, the T1/2z [2, 3] was 13.5 h, the tmax [2, 3] was 2 h and the “% AUC0-inf Extrapolated” value [2, 4] was 17.7%. It also gave an AUC0-inf [2, 4] of 583 ng·h/mL, an AUC(0-t) [2, 4] of 482 ng·h/mL and a Cmax [2, 4] of 62.4 ng/mL. For the same molecule, the MRTinf [2, 4] was 13.5 h, the T1/2z [2, 4] was 10.7 h and the tmax [2, 4] was 2.00 h. The “% AUC0-inf Extrapolated” value [2, 5] was 12.1%, the AUC0-inf [2, 5] was 1700 ng·h/mL and the AUClast [2, 5] was 1510 ng·h/mL. For the same molecule, the Cmax [2, 5] was 134 ng/mL, the MRTinf [2, 5] was 18.5 h and the T1/2z [2, 5] was 14.4 h. The tmax [2, 5] was 2 h, the “% AUC0-inf Extrapolated” value [2, 6] was 15.6% and the AUC0-inf [2, 6] was 1100 ng·h/mL. It also gave an AUC(0-t) [2, 6] of 944 ng·h/mL, a Cmax [2, 6] of 96.4 ng/mL and an MRTinf [2, 6] of 18.5 h. The T1/2z [2, 6] was 15.4 h, the tmax [2, 6] was 2.00 h and the “% AUC0-inf Extrapolated” value [2, 7] was 23.1%. It also gave an AUC0-inf [2, 7] of 498 ng·h/mL, an AUClast [2, 7] of 381 ng·h/mL and a Cmax [2, 7] of 66.2 ng/mL. The MRTinf [2, 7] was 14.2 h, the T1/2z [2, 7] was 11.7 h and the tmax [2, 7] was 2 h. The “% AUC0-inf Extrapolated” value [2, 8] was 26.3%, the AUC0-inf [2, 8] was 475 ng·h/mL and the AUC(0-t) [2, 8] was 345 ng·h/mL. It also gave a Cmax [2, 8] of 70.5 ng/mL, an MRTinf [2, 8] of 14.6 h and a T1/2z [2, 8] of 12.2 h. For the same molecule, the tmax [2, 8] was 1.00 h, the “% AUC0-inf Extrapolated” value [2, 9] was 2.59% and the AUC0-inf [2, 9] was 6480 ng·h/mL. It also gave an AUClast [2, 9] of 6310 ng·h/mL, a Cmax [2, 9] of 214 ng/mL and an MRTinf [2, 9] of 33.4 h. For the same molecule, the T1/2z [2, 9] was 23.1 h, the tmax [2, 9] was 4 h and the “% AUC0-inf Extrapolated” value [2, 10] was 8.46%. For the same molecule, the AUC0-inf [2, 10] was 2470 ng·h/mL, the AUC(0-t) [2, 10] was 2290 ng·h/mL and the Cmax [2, 10] was 153 ng/mL. The MRTinf [2, 10] was 20.0 h, the T1/2z [2, 10] was 14.9 h and the tmax [2, 10] was 2.50 h. For the same molecule, the Ae0-120 [2, 3] was 7470 µg, the fe0-120 [2, 3] was 0.417 and the Ae0-120 [2, 4] was 7160 µg. The fe0-120 [2, 4] was 0.399, the Ae0-120 [2, 5] was 6480 µg and the fe0-120 [2, 5] was 0.361. It also gave an Ae0-120 [2, 6] of 8000 µg, a fe0-120 [2, 6] of 0.446 and an Ae0-120 [2, 7] of 8210 µg. For the same molecule, the fe0-120 [2, 7] was 0.458, the Ae0-120 [2, 8] was 8540 µg and the fe0-120 [2, 8] was 0.476. For the same molecule, the Ae0-120 [2, 9] was 6720 µg, the fe0-120 [2, 9] was 0.375 and the Ae0-120 [2, 10] was 6300 µg. The fe0-120 [2, 10] was 0.351, the “Amount in the body cleared during a standard 4-hour hemodialysis procedure” value ([2]; ESRD) was “Approximately 18%” and the Hemodialysis extraction ratio ([2]; ESRD) was 18.4%. For the same molecule, the Removal by hemodialysis ([2]; ESRD) was “partially removed”, the AUC24 hr [2, 11] was 9530 ng·h/mL and the Cmax [2, 11] was 300 ng/mL. It also gave a t1/2 [2, 11] of 25.7 h, an AUC24 hr [2, 12] of 482 ng·h/mL and a Cmax [2, 12] of 62.4 ng/mL. For the same molecule, the t1/2 [2, 12] was 10.7 h, the AUC24 hr [2, 13] was 944 ng·h/mL and the Cmax [2, 13] was 96.4 ng/mL. The t1/2 [2, 13] was 15.4 h, the AUC24 hr [2, 14] was 345 ng·h/mL and the Cmax [2, 14] was 70.5 ng/mL. The t1/2 [2, 14] was 12.2 h, the AUC24 hr [2, 15] was 2290 ng·h/mL and the Cmax [2, 15] was 153 ng/mL. For the same molecule, the t1/2 [2, 15] was 14.9 h, the “Exposure (Geometric Mean Ratio for AUCinf) increase compared to normal subjects” value ([2]; mild (CLcr=51-80 mL/min)) was 1.2 fold and the “Terminal half-life prolonged by” value ([2]; mild renal impairment) was 0%. The “Exposure (Geometric Mean Ratio for AUCinf) increase compared to normal subjects” value ([2]; moderate (CLcr=31-50 mL/min)) was 2.3 fold, the “Terminal half-life prolonged by” value ([2]; moderate renal impairment) was 26% and the Fractional excretion ([2]; normal renal function) was 48%. For the same molecule, the “Exposure (Geometric Mean Ratio for AUCinf) increase compared to normal subjects” value ([2]; severe (CLcr=5-30 mL/min)) was 5.2 fold, the Fractional excretion ([2]; severe renal impairment) was 35% and the “Terminal half-life prolonged by” value ([2]; severe renal impairment) was 22%. The “Highest individual AUC0-inf in a subject not on hemodialysis” value ([2]; subject 3140-010, creatinine clearance 9.9 mL/min) was 6480 ng·h/mL, the “Highest observed Cmax in the clinical study” value ([2]; subject with ESRD (#3140-505)) was 520 ng/mL and the “Highest AUC0-inf overall” value ([2]; subject with ESRD on hemodialysis) was 20800 ng·h/mL.

Source: patent US8999970B2, “Administration of an anti-obesity compound to individuals with renal impairment” (Arena Pharmaceuticals, Inc., priority 2010, dated 2015)
